In patent US9776127B2, “Reversible light driven gas absorbent solution and process” (Commonwealth Scientific and Industrial Research Organisation, priority 2013, dated 2017):

Experiment: pKa of photoactive compound in ground and excited state
Assay type: physicochemical
Description: The operating range of the photoactive compound may be related to the difference in pKa between the excited and ground states of the photoactive molecule. The operating range may be ascertained by determining the pKa of the photoactive compound in its ground state (e.g. the base or relatively weak acid form) and the pKa of the compound in its excited state (e.g. the relatively strong acidic form). The difference in pKa between these two forms therefore defines the operating range of the photoactive compound. […] The requirement to select an amine for use with a photochromic molecule that results in an absorbent pH within the working range of the photochromic molecule can be illustrated by calculation. […] The pH of a mixture containing 0.5 M amine and 0.25 M MEH (ground state) as a function of absorbed CO2 and 0.5 M amine and 0.25 spiropyran (excited state) as function of absorbed CO2 was calculated using the published method Puxty, […]. Int. […]. Gas Control, 17 (2013), 215-224. The difference in pH of the absorbent at each concentration of absorbed CO2 is indicative of the ability of excitation to remove CO2 from the absorbent. […] Chem. Thermodynamics, 51 (2012), 97-102 and Fernandes, D., et al., J. Chem. Thermodynamics, 54 (2012), 183-191.

Row | pKa (excited state) | pKa (ground state) | pKa (aqueous solution, ground state, aqueous solution at room temperature) | SMILES
1 | 1.9 | 9.7 |  | O=[N+]([O-])CCc1c(O)ccc2ccccc12 [1-(2-nitroethyl)-2-naphthol]
2 |  |  | 7.8 | CC1(C)C(/C=C/c2ccccc2O)=[N+](CCCS(=O)(=O)[O-])c2ccccc21 [MEH]
